Assay: Stability of trypan blue and brilliant blue G in polymer solutions, 70° C. for 7 days, absorbance spectra
Conditions: 0.025% (w/v)

stability of brilliant blue G (difference absorbance spectra) (4% (w/v) PEG Mw≈3350): excellent solvent | stability of brilliant blue G (difference absorbance spectra) (PVA Mw≈13,000-23,000): much less stable
SMILES: CCOc1ccc(Nc2ccc(/C(=C3C=C/C(=[N+](/CC)Cc4cccc(S(=O)(=O)[O-])c4)C=C/3C)c3ccc(N(CC)Cc4cccc(S(=O)(=O)[O-])c4)cc3C)cc2)cc1.[Na+] [brilliant blue G]

Reference: US9579401B2, “Staining composition” (Medical Technology Transfer Holding B.V., priority 2010, dated 2017)
